This note sets out measurements from patent publication US20240110130A1, “COMPOSITION” (Conopco, Inc., d/b/a UNILEVER, priority 2021, published 2024).

A short description of this data set: Colour measurement (yellowing) of liquid laundry compositions comprising DHA. The data set is classed as physicochemical. To be noted: added to laundry liquid comprising DHA salt.

Turning to `O=S([O-])[O-].[K+].[K+]` [sulphite, Potassium Sulfite], the effect on yellowing result is listed as “reduces yellowing”.
